{"source": "patent US9695155B2", "about": "“Herbicidal substituted pyrimidinyloxy benzene compounds” (E. I. DU PONT DE NEMOURS AND COMPANY, priority 2013, dated 2017)", "key": {"[1]": {"test_system": "dayflower", "assay": "Test E preemergence", "assay_type": "in vivo, Commelina virginica", "details": "for Dayflower, VA plant response rating: scale 0 to 100 (0 no effect, 100 complete control); for Plant response rating, Dayflower, VA: scale 0 to 100, 0 no effect, 100 complete control", "in_short": "(§1)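 Test chemicals formulated in a non-phytotoxic solvent mixture containing a surfactant were applied preemergence to seeds in silt loam soil or postemergence to plants at the 1- to 4-leaf stage in potting mix. After 14 to 21 days in a greenhouse, injury was visually rated against controls on a 0-100 scale (0 = no effect, 100 = complete control).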"}, "[2]": {"test_system": "sandbur", "assay": "Test E preemergence", "assay_type": "in vivo, Cenchrus echinatus", "details": "for Sandbur plant response rating: scale 0 to 100 (0 no effect, 100 complete control); for Plant response rating, Sandbur: scale 0 to 100, 0 no effect, 100 complete control", "in_short": "as §1"}, "[3]": {"test_system": "fall panicum", "assay": "Test E preemergence", "assay_type": "in vivo, Panicum dichotomiflorum", "details": "for Panicum, Fall plant response rating: scale 0 to 100 (0 no effect, 100 complete control); for Plant response rating, Panicum, Fall: scale 0 to 100, 0 no effect, 100 complete control", "in_short": "as §1"}, "[4]": {"test_system": "green foxtail", "assay": "Test E preemergence", "assay_type": "in vivo, Setaria viridis", "details": "for Foxtail, Green plant response rating: scale 0 to 100 (0 no effect, 100 complete control); for Plant response rating, Foxtail, Green: scale 0 to 100, 0 no effect, 100 complete control", "source_text": "(§2) Seeds of plant species selected from corn (Zea mays), soybean (Glycine max), velvetleaf (Abutilon theophrasti), lambsquarters (Chenopodium album), wild poinsettia (Euphorbia heterophylla), palmer pigweed (Amaranthus palmeri), waterhemp (common waterhemp, Amaranthus rudis), surinam grass (Brachiaria decumbens), large (Lg) crabgrass (Digitaria sanguinalis), Brazilian crabgrass (Digitaria horizontalis), fall panicum (Panicum dichotomiflorum), giant foxtail (Setaria faberii), green foxtail (Setaria viridis), goosegrass (Eleusine indica), johnsongrass (Sorghum halepense), ragweed (common ragweed, Ambrosia elatior), barnyardgrass (Echinochloa crus-galli), sandbur (southern sandbur, Cenchrus echinatus), arrowleaf sida (Sida rhombifolia), Italian ryegrass (Lolium multiflorum), dayflower (Virginia (VA) dayflower, Commelina virginica), field bindweed (Convolvulus arvensis), morningglory (Ipomoea coccinea), nightshade (eastern black nightshade, Solanum ptycanthum), kochia (Kochia scoparia), yellow nutsedge (Cyperus esculentus), cocklebur (common cocklebur, Xanthium strumarium), smartweed (ladysthumb smartweed, and hairy beggarticks (Bidens pilosa), were planted into a silt loam soil and treated preemergence with test chemicals formulated in a non-phytotoxic solvent mixture which included a surfactant.\n(§3) At the same time, plants from these crop and weed species and also horseweed (Canada horseweed, Conyza canadensis), waterhemp_RES1, (ALS & Triazine resistant common waterhemp, Amaranthus rudis), and waterhemp_RES2, (ALS & HPPD resistant common waterhemp, Amaranthus rudis) were planted in pots containing Redi-Earth® planting medium (Scotts Company, 14111 Scottslawn Road, Marysville, Ohio 43041) comprising spaghnum peat moss, vermiculite, wetting agent and starter nutrients were treated with postemergence applications of test chemicals formulated in the same manner. Plants ranged in height from 2 to 18 cm for postemergence treatments (1- to 4-leaf stage). Treated plants and controls were maintained in a greenhouse for 14 to 21 days, after which time all species were compared to controls and visually evaluated. Plant response ratings, summarized in Table E, are based on a scale of 0 to 100 where 0 is no effect and 100 is complete control. A dash (-) response means no test result."}, "[5]": {"test_system": "Italian ryegrass", "assay": "Test E preemergence", "assay_type": "in vivo, Lolium multiflorum", "details": "for Ryegrass, Italian plant response rating: scale 0 to 100 (0 no effect, 100 complete control); for Plant response rating, Ryegrass, Italian: scale 0 to 100, 0 no effect, 100 complete control", "source_text": "as §2, §3"}, "[6]": {"test_system": "large (Lg) crabgrass", "assay": "Test E preemergence", "assay_type": "in vivo, Digitaria sanguinalis", "details": "for Crabgrass, Large plant response rating: scale 0 to 100 (0 no effect, 100 complete control); for Plant response rating, Crabgrass, Large: scale 0 to 100, 0 no effect, 100 complete control", "source_text": "as §2, §3"}, "[7]": {"test_system": "waterhemp_RES2 (ALS & HPPD resistant common waterhemp)", "assay": "Test E postemergence", "assay_type": "in vivo, Amaranthus rudis", "details": "Amaranthus tuberculatus, post-emergence, read-out: Plant response rating, Waterhemp_RES2", "source_text": "as §2, §3"}, "[8]": {"test_system": "waterhemp", "assay": "Test E postemergence", "assay_type": "in vivo, Amaranthus rudis", "details": "Amaranthus tuberculatus, post-emergence, read-out: Plant response rating, Waterhemp", "source_text": "as §2, §3"}, "[9]": {"test_system": "barnyardgrass", "assay": "Test E preemergence", "assay_type": "in vivo, Echinochloa crus-galli", "details": "for Barnyardgrass plant response rating: scale 0 to 100 (0 no effect, 100 complete control); for Plant response rating, Barnyardgrass: scale 0 to 100, 0 no effect, 100 complete control", "in_short": "as §1"}, "[10]": {"test_system": "corn", "assay": "Test E postemergence", "assay_type": "in vivo, Zea mays", "details": "Zea mays, post-emergence", "in_short": "as §1"}, "[11]": {"test_system": "wild poinsettia", "assay": "Test E preemergence", "assay_type": "in vivo, Euphorbia heterophylla", "details": "for Poinsettia, Wild plant response rating: scale 0 to 100 (0 no effect, 100 complete control); for Plant response rating, Poinsettia, Wild: scale 0 to 100, 0 no effect, 100 complete control", "source_text": "as §2, §3"}, "[12]": {"test_system": "palmer pigweed", "assay": "Test E postemergence", "assay_type": "in vivo, Amaranthus palmeri", "details": "post-emergence, read-out: Plant response rating, Pigweed, Palmer", "source_text": "as §2, §3"}, "[13]": {"test_system": "fall panicum", "assay": "Test E postemergence", "assay_type": "in vivo, Panicum dichotomiflorum", "details": "Panicum dichotomiflorum, post-emergence, read-out: Plant response rating, Panicum, Fall", "in_short": "as §1"}, "[14]": {"details": "Postemergence, 31 g ai/ha, scale 0 to 100"}, "[15]": {"details": "Postemergence, 62 g ai/ha, scale 0 to 100"}, "[16]": {"details": "Postemergence, 125 g ai/ha, scale 0 to 100"}, "[17]": {"details": "postemergence, 16 g ai/ha, scale 0 to 100, 0 no effect, 100 complete control"}}, "data": [{"compound": "N#Cc1cccc(Oc2ncc(Cl)cn2)c1-n1cc(Br)cn1", "note": "[Compound 52, 2-(4-bromo-1H-pyrazol-1-yl)-3-[(5-chloro-2-pyrimidinyl)oxy]benzonitrile]", "values": [{"measurement": "Dayflower, VA plant response rating", "setting": "[1]; 16 g ai/ha", "value": 0}, {"measurement": "Dayflower, VA plant response rating", "setting": "[1]; 31 g ai/ha", "value": 0}, {"measurement": "Dayflower, VA plant response rating", "setting": "[1]; 62 g ai/ha", "value": 5}, {"measurement": "Plant response rating, Dayflower, VA", "setting": "[1]; 125 g ai/ha", "value": 70}, {"measurement": "Plant response rating, Dayflower, VA", "setting": "[1]; 250 g ai/ha", "value": 98}, {"measurement": "Sandbur plant response rating", "setting": "[2]; 16 g ai/ha", "value": 0}, {"measurement": "Sandbur plant response rating", "setting": "[2]; 31 g ai/ha", "value": 0}, {"measurement": "Sandbur plant response rating", "setting": "[2]; 62 g ai/ha", "value": 10}, {"measurement": "Plant response rating, Sandbur", "setting": "[2]; 125 g ai/ha", "value": 35}, {"measurement": "Plant response rating, Sandbur", "setting": "[2]; 250 g ai/ha", "value": 80}, {"measurement": "Panicum, Fall plant response rating", "setting": "[3]; 16 g ai/ha", "value": 0}, {"measurement": "Panicum, Fall plant response rating", "setting": "[3]; 31 g ai/ha", "value": 0}, {"measurement": "Panicum, Fall plant response rating", "setting": "[3]; 62 g ai/ha", "value": 100}, {"measurement": "Plant response rating, Panicum, Fall", "setting": "[3]; 125 g ai/ha", "value": 100}, {"measurement": "Plant response rating, Panicum, Fall", "setting": "[3]; 250 g ai/ha", "value": 100}, {"measurement": "Foxtail, Green plant response rating", "setting": "[4]; 16 g ai/ha", "value": 0}, {"measurement": "Foxtail, Green plant response rating", "setting": "[4]; 31 g ai/ha", "value": 20}, {"measurement": "Foxtail, Green plant response rating", "setting": "[4]; 62 g ai/ha", "value": 75}, {"measurement": "Plant response rating, Foxtail, Green", "setting": "[4]; 125 g ai/ha", "value": 80}, {"measurement": "Plant response rating, Foxtail, Green", "setting": "[4]; 250 g ai/ha", "value": 100}, {"measurement": "Ryegrass, Italian plant response rating", "setting": "[5]; 16 g ai/ha", "value": 0}, {"measurement": "Ryegrass, Italian plant response rating", "setting": "[5]; 31 g ai/ha", "value": 0}, {"measurement": "Ryegrass, Italian plant response rating", "setting": "[5]; 62 g ai/ha", "value": 0}, {"measurement": "Plant response rating, Ryegrass, Italian", "setting": "[5]; 125 g ai/ha", "value": 60}, {"measurement": "Plant response rating, Ryegrass, Italian", "setting": "[5]; 250 g ai/ha", "value": 90}, {"measurement": "Crabgrass, Large plant response rating", "setting": "[6]; 16 g ai/ha", "value": 0}, {"measurement": "Crabgrass, Large plant response rating", "setting": "[6]; 31 g ai/ha", "value": 35}, {"measurement": "Crabgrass, Large plant response rating", "setting": "[6]; 62 g ai/ha", "value": 98}, {"measurement": "Plant response rating, Crabgrass, Large", "setting": "[6]; 125 g ai/ha", "value": 100}, {"measurement": "Plant response rating, Crabgrass, Large", "setting": "[6]; 250 g ai/ha", "value": 100}, {"measurement": "pest or weed control at 31 g/ha", "setting": "[7]; [14]", "value": 90, "unit": "%"}, {"measurement": "pest or weed control at 62 g/ha", "setting": "[7]; [15]", "value": 95, "unit": "%"}, {"measurement": "pest or weed control at 125 g/ha", "setting": "[7]; [16]", "value": 90, "unit": "%"}, {"measurement": "pest or weed control at 16 g/ha", "setting": "[7]; [17]", "value": 80, "unit": "%"}, {"measurement": "pest or weed control at 31 g/ha", "setting": "[8]; [14]", "value": 70, "unit": "%"}, {"measurement": "pest or weed control at 62 g/ha", "setting": "[8]; [15]", "value": 75, "unit": "%"}, {"measurement": "pest or weed control at 125 g/ha", "setting": "[8]; [16]", "value": 95, "unit": "%"}, {"measurement": "pest or weed control at 16 g/ha", "setting": "[8]; [17]", "value": 65, "unit": "%"}, {"measurement": "Barnyardgrass plant response rating", "setting": "[9]; 16 g ai/ha, preemergence", "value": 0}, {"measurement": "Barnyardgrass plant response rating", "setting": "[9]; 31 g ai/ha, preemergence", "value": 0}, {"measurement": "Plant response rating, Barnyardgrass", "setting": "[9]; Preemergence, 62 g ai/ha", "value": 30}, {"measurement": "Plant response rating, Barnyardgrass", "setting": "[9]; preemergence, 125 g ai/ha", "value": 75}, {"measurement": "Plant response rating, Barnyardgrass", "setting": "[9]; preemergence, 250 g ai/ha", "value": 98}, {"measurement": "corn plant response (injury) rating, 0-100 at 31 g/ha", "setting": "[10]; [14]", "value": 10, "unit": "%"}, {"measurement": "corn plant response (injury) rating, 0-100 at 62 g/ha", "setting": "[10]; [15]", "value": 20, "unit": "%"}, {"measurement": "corn plant response (injury) rating, 0-100 at 125 g/ha", "setting": "[10]; [16]", "value": 25, "unit": "%"}, {"measurement": "corn plant response (injury) rating, 0-100 at 16 g/ha", "setting": "[10]; [17]", "value": 10, "unit": "%"}, {"measurement": "Poinsettia, Wild plant response rating", "setting": "[11]; 16 g ai/ha", "value": 0}, {"measurement": "Poinsettia, Wild plant response rating", "setting": "[11]; 31 g ai/ha", "value": 0}, {"measurement": "Poinsettia, Wild plant response rating", "setting": "[11]; 62 g ai/ha", "value": 25}, {"measurement": "Plant response rating, Poinsettia, Wild", "setting": "[11]; 125 g ai/ha", "value": 50}, {"measurement": "Plant response rating, Poinsettia, Wild", "setting": "[11]; 250 g ai/ha", "value": 100}, {"measurement": "pest or weed control at 31 g/ha", "setting": "[12]; [14]", "value": 70, "unit": "%"}, {"measurement": "pest or weed control at 62 g/ha", "setting": "[12]; [15]", "value": 95, "unit": "%"}, {"measurement": "pest or weed control at 125 g/ha", "setting": "[12]; [16]", "value": 95, "unit": "%"}, {"measurement": "pest or weed control at 16 g/ha", "setting": "[12]; [17]", "value": 60, "unit": "%"}, {"measurement": "pest or weed control at 31 g/ha", "setting": "[13]; [14]", "value": 10, "unit": "%"}, {"measurement": "pest or weed control at 62 g/ha", "setting": "[13]; [15]", "value": 10, "unit": "%"}, {"measurement": "pest or weed control at 125 g/ha", "setting": "[13]; [16]", "value": 40, "unit": "%"}, {"measurement": "pest or weed control at 16 g/ha", "setting": "[13]; [17]", "value": 5, "unit": "%"}]}]}
